Assay results as given in PMC12518634, “The noncanonical function of liver-type phosphofructokinase potentiates the efficacy of HDAC inhibitors in cancer” (Signal Transduction and Targeted Therapy, 2025).
Where two headings read alike, the source gives them in different places.

Columns and labels:
[1] = test system: 783C-6; test: High-throughput drug screen, CellTiter-Glo viability, 72 h; format: cell-based, human; design: AUC: scale not given here; details: for DSS: DSS calculated from the dose-response curve; for MIN: MIN of the fitted dose-response curve; for AUC: area under the dose-response curve; for EC50: 72 h, read-out: EC50; for SLOPE: slope of the fitted dose-response curve
Protocol: (§1) The cells were seeded and incubated with a gradient of concentrations of drugs for 72 h, after which the cell viability was assessed (Supplementary Fig. 1a). The drug library primarily comprises epigenetic drugs, including HDAC inhibitors, DNA methyltransferase inhibitors, and histone demethylase inhibitors, as well as conventional chemotherapies and kinase inhibitors (Supplementary Fig. 1b and Supplementary Table 1). […] To identify novel therapeutics against CCA, we conducted a high-throughput screen employing PerkinElmer’s integrated robotic Explorer G3 workstations. […] Following dilution to five specified concentrations, drugs were dispensed into 96-well plates in the sequence detailed in Supplementary Fig. 1a. The CCA cell lines were subsequently plated in 384-well plates at a density of 3000 cells per well in a 20 μL total volume. After a 24-h incubation, the compounds were added to the wells and incubated for 72 h. We then quantified cell viability via the CellTiter-Glo luminescent assay according to the manufacturer’s protocol. Signal detection was carried out on a Synergy2 plate reader operated by Gen5 software (BioTek). For data processing, the raw luminescence data were processed through the Breeze pipeline for curve fitting, yielding quality control metrics (e.g., Z-factors) and drug response parameters (AUC and DSS), as adapted from previous work.[54] Drug responses were evaluated on the basis of the drug sensitivity score (DSS), and a cutoff of ≥10 was used to define efficacy. The complete drug library and screening dataset are available in Supplementary Tables 1-3.
(§2) Supplementary Fig. 1. A high-throughput drug screen to identify drugs targeting CCA. a Schematic representation of the drug screening protocol. […] Each drug was tested at five different concentrations (10, 1, 0.1, 0.01, and 0.001 μM), and each treatment was replicated twice. b Classification of drugs used for screening.

[2] = test system: 1405R3; test: as above; format: cell-based, human; design: AUC: scale not given here; details: 1405R3 DSRT analysis; for AUC: area under the dose-response curve; for MIN: lower asymptote of fitted dose-response curve; for EC50: fitted dose-response curve, Min.Conc.tested 1, Max.Conc.tested 10000, CellTiter-Glo, 72 h, read-out: EC50; for SLOPE: slope of fitted dose-response curve
Protocol: as §1, §2

[3] = 783C-6 DSRT analysis, CellTiter-Glo viability, fitted dose-response curve, Min.Conc.tested 1, Max.Conc.tested 10000

SMILES	DSS ([1]; 783C-6 DSRT analysis)	MIN ([1]; 783C-6 DSRT analysis)	AUC ([1]; 783C-6 DSRT analysis)	EC50 ([1]; Homo sapiens) [µM]	DSS [2]	AUC [2]	MIN [2]	EC50 ([2]; Homo sapiens) [µM]	SLOPE ([1]; 783C-6 DSRT analysis)	SLOPE [2]	EC50 [1, 3] [µM]	EC50 [2] [µM]
CC[C@@H]1C(=O)N(C)c2cnc(Nc3ccc(C(=O)NC4CCN(C)CC4)cc3OC)nc2N1C1CCCC1 [BI 2536]	8.8	52.4	90	0.137	11.6	98.4	6.7	0.884				
COc1cc2nc(N3CCCN(C)CC3)nc(NC3CCN(Cc4ccccc4)CC3)c2cc1OC [BIX 01294]	4.7	28	42.4	2.61	4.6	42.6	12.3	3.35				
Nc1ccccc1NC(=O)CCCCCCC(=O)Nc1ccccc1 [BML-210]	0	97	3.9		0	5.7	96.1		-2.5	-0.1		
CC(=O)Nc1ccc(C(=O)Nc2ccc(F)cc2N)cc1 [BRD3308]	0	86.9	3.9		0	12.9	91.7		-1	-0.1		
O=C(NO)c1cccc(C(=O)NCCc2ccccc2)c1 [BRD73954]	0	90.9	14		0	13.2	91.5		-0.1	-0.1		
CCN(CCCOc1ccc2c(Nc3cc(CC(=O)Nc4cccc(F)c4)n[nH]3)ncnc2c1)CCOP(=O)(O)O [Barasertib]	0	91.7	11.5		0	0.1	100					
O=C(O)CCCc1ccccc1 [Benzenebutyric acid]	0	96.8	1.4		0	2.3	94.7		-0.7	-0.7		
O=S(=O)(Cl)c1ccc(-c2ccccc2)cc1 [Biphenyl-4-sulfonyl chloride]	0	88.2	18.3		0	6.3	94		-0.1	-0.2		
CC(C)(C)OC(=O)Nc1ccc(-c2cc(C(=O)NCCCCCCC(=O)NO)no2)cc1 [CAY10603]	4.4	30.8	39.5		5	45.4	20.6		-2.5	-2.5	2.73	2.72
COc1cc2c(NC3CCN(C)CC3)cc(-c3ccc(C)o3)nc2cc1OCCCN1CCCC1 [CM272]	13.1	28.5	107.8		6.8	59.8	15.5		-2.5	-2.5	0.311	1.98
CCS(=O)(=O)N1CCC([C@@H](C)n2c(C)c(C(=O)NCc3c(OC)cc(C)[nH]c3=O)c3ccccc32)CC1 [CPI-169]	0	97.5	1		0	0.1	100					
Cc1sc2c(c1C)C(c1ccc(Cl)cc1)=N[C@@H](CC(N)=O)c1nnc(C)n1-2 [CPI-203]	0	93.6	3.2		13	111.9	33.4		-0.7	-1.2		0.21
COc1cc(C)[nH]c(=O)c1CNC(=O)c1c(C)n([C@H](C)C2CCOCC2)c2ccccc12 [CPI-360]	0.1	84.8	36.1		0	11.9	92.3					
Cc1noc2c1-c1ccccc1C(c1ccc(Cl)cc1)=N[C@H]2CC(N)=O [CPI-0610]	0.7	84.7	34.4		6.7	64.6	49.2	0.566				
C#Cc1cccc(Nc2ncnc3cc(OC)c(OCCCCCCC(=O)NO)cc23)c1 [CUDC-101]	8.7	2.2	75.9	1.68	10	85.7	2.9	1.31				
COc1ccc(-c2nc(N3CCOCC3)c3sc(CN(C)c4ncc(C(=O)NO)cn4)cc3n2)cn1 [CUDC-907]	21.1	2.9	175.2	0.157	22.6	188.1	0.8	0.127				
C=CC(=O)Nc1cc2c(Nc3ccc(F)c(Cl)c3)ncnc2cc1OCCCN1CCOCC1 [Canertinib]	0	75.6	7.4		0	33.5	78.5					
COc1cc2c(Oc3ccc4[nH]c(C)cc4c3F)ncnc2cc1OCCCN1CCCC1 [Cediranib]	2.4	57.8	23.3	2.85	5.6	50.5	9.6	2.81				
N.N.[Cl][Pt][Cl] [Cisplatin]	2	65.1	20.4		2	22.7	71.3		-2.5	-1.8	2.63	1.65
O=C(CCCCCCNC(=O)c1cnc(N(c2ccccc2)c2ccccc2Cl)nc1)NO [Citarinostat]	3.4	50.9	31.7	2.28	3.5	32.3	46.8	2.5				
COc1cc(/C=C/C(=O)CC(=O)/C=C/c2ccc(O)c(OC)c2)ccc1O [Curcumin]	0	96.8	2.1		0	1	97.3					
Cc1sc2c(c1C)C(c1ccc(Cl)cc1)=N[C@@H](CC(=O)NCCCCCCCCNC(=O)COc1cccc3c1C(=O)N(C1CCC(=O)NC1=O)C3=O)c1nnc(C)n1-2 (some centres unmarked) [DBET6]	6.9	29.1	59.2		0.4	8.2	80		-2.5	-2.5	1.47	
O=C(/C=C/c1ccc(CN(CCO)CCc2c[nH]c3ccccc23)cc1)NO [Dacinostat]	11.6	2.5	99	0.965	15.8	132.5	1.4	0.453				
CN(C)NC(=O)CCC(=O)O [Daminozide]	0	97.8	1		0	0.1	99.6					
Nc1ncn([C@H]2C[C@H](O)[C@@H](CO)O2)c(=O)n1 [Decitabine]	0.5	88.5	19.6		0	0.1	100					
CCCC(CCC)C(=O)O [Divalproex Sodium]	0	96.3	0.4		0	0.1	100					
CN1CCN(c2ccc3nc(-c4c(N)c5c(F)cccc5[nH]c4=O)[nH]c3c2)CC1 [Dovitinib]	4.1	35.6	37	2.7	4.2	38.6	29.8	2.87				
Cc1cc(Cl)ccc1OCCCC(=O)NO [Droxinostat]	0	90.5	2.9		0	1.2	97.1		-1	-0.7		
